The values below come from EPA's ToxRefDB 2.

Data set [1] deals with rat. As to conditions: Sub-acute repeat dose toxicity, sprague dawley, Oral, Gavage/Intubation, dose end: 1 month, group: systemic.
The test system of data set [2] is mouse. As to conditions: Subchronic oral toxicity in rodents, cd1, Gavage/Intubation, dose end: 3 month, group: systemic, systemic / pathology microscopic / gallbladder / degeneration + systemic / pathology microscopic / gallbladder / hyperplasia + systemic / ….
Another data set has as its system primate. To be noted: Sub-acute repeat dose toxicity, macaque, Oral, Gavage/Intubation, dose end: 28 day, group: systemic.
In data set [3] the test system is mouse. To be noted: Combined chronic toxicity/carcinogenicity, b6c3f1, Oral, Feed, dose end: 106 week, group: systemic.
For data set [4], the system named is rat. As to conditions: Combined chronic toxicity/carcinogenicity; fischer; Oral; Feed; dose end: 105 week; group: systemic; systemic / in life observation / body weight / body weight + systemic / pathology microscopic / kidney / nephropathy + systemic / pathology ….
In data set [5] the test system is rat. As to conditions: Subchronic oral toxicity in rodents, other, Feed, dose end: 13 week, group: systemic, systemic / pathology microscopic / stomach / erosion + systemic / pathology microscopic / stomach / inflammation + systemic / pathology ….
The test system of data set [6] is rat. As to conditions: Multigenerational reproductive toxicity study, other, Oral, Feed, dose end: 2 generation.
For data set [7], the system named is dog. As to conditions: Subchronic oral toxicity in nonrodent, beagle, Feed, dose end: 13 week, group: systemic, systemic / clinical chemistry / globulins / globulins + systemic / clinical chemistry / protein / protein + systemic / hematology / platelet….
Data set [8] concerns rat. As to conditions: Prenatal developmental toxicity study, other, Oral, Gavage/Intubation, dose end: 15 GD.
The subject of data set [9] is rat. To be noted: Subchronic oral toxicity in rodents, other, Gavage/Intubation, dose end: 90 day, group: systemic, systemic / in life observation / body weight / body weight + systemic / in life observation / body weight / body weight gain + systemic / ….
Data set [10] concerns dog. As to conditions: Subchronic oral toxicity in nonrodent, beagle, Gavage/Intubation, dose end: 91 day, group: systemic, systemic / in life observation / body weight / body weight + systemic / in life observation / body weight / body weight gain + systemic / ….
Another data set concerns rabbit. To be noted: Prenatal developmental toxicity study, new zealand white, Oral, Gavage/Intubation, dose end: 28 GD.
For data set [11], the system named is rat. As to conditions: Multigenerational reproductive toxicity study, sprague dawley, Oral, Gavage/Intubation, dose end: 1 generation.
In data set [12] the test system is rat. To be noted: Subchronic dermal toxicity, sprague dawley, Topical, dose end: 90 day, group: systemic, systemic / in life observation / clinical signs / desquamation + systemic / in life observation / clinical signs / erythema + systemic / in ….
Data set [13] relates to rat. As to conditions: Sub-acute repeat dose toxicity; sprague dawley; Oral; Gavage/Intubation; dose end: 1 week; group: systemic; systemic / in life observation / food consumption / food consumption + systemic / in life observation / water consumption / water ….
The subject of data set [14] is rat. To be noted: Subchronic oral toxicity in rodents, sprague dawley, Gavage/Intubation, dose end: 90 day, group: systemic.
For data set [15], the system named is rat. As to conditions: Prenatal developmental toxicity study, other, Oral, Gavage/Intubation, dose end: 15 GD. The source holds these as a separate data set.
The test system of data set [16] is rat. To be noted: Subchronic oral toxicity in rodents, other, Feed, dose end: 13 week, group: systemic.
The mark [17] stands for this setting: systemic / clinical chemistry / alanine aminotransferase (alt/sgpt) / alanine aminotransferase (alt/sgpt) + systemic / clinical chemistry / ….
Setting [18] is: systemic / clinical chemistry / albumin / albumin + systemic / clinical chemistry / calcium / calcium + systemic / in life observation / ….
Where [19] appears, read: systemic / in life observation / body weight / body weight.
[20] abbreviates: systemic / in life observation / body weight / body weight + systemic / pathology microscopic / blood / lymphoma nos + systemic / pathology ….
[21] abbreviates: group: offspring, systemic / organ weight / spleen / absolute + systemic / organ weight / spleen / relative to body weight + developmental / offspring ….
Where [22] appears, read: group: offspring, systemic / organ weight / spleen / absolute + systemic / organ weight / spleen / relative to body weight + systemic / organ weight / thymus….
Setting [23] is: group: parental, systemic / in life observation / body weight / body weight + systemic / in life observation / clinical signs / general pallor.
The mark [24] stands for this setting: group: developmental, developmental / developmental malformation / bone / wavy.
Where [25] appears, read: group: maternal, systemic / in life observation / body weight / body weight gain.
Where [26] appears, read: group: developmental, developmental / developmental malformation / bone / malpositioned + developmental / developmental malformation / bone / supernumerary + ….
[27] abbreviates: group: maternal, systemic / in life observation / body weight / body weight gain + systemic / in life observation / food consumption / food consumption.
[28] abbreviates: group: maternal, systemic / in life observation / body weight / body weight gain + systemic / in life observation / food consumption / food consumption + ….
Where [29] appears, read: group: parental, systemic / in life observation / clinical signs / fur (altered appearance) + systemic / in life observation / clinical signs / hunched ….
[30] abbreviates: group: reproductive, reproductive / offspring survival early / dead fetuses / dead fetuses.
[31] abbreviates: systemic / pathology microscopic / stomach / hyperplasia + systemic / in life observation / clinical signs / abnormal respiratory sounds + ….
Where [32] appears, read: systemic / pathology microscopic / stomach / hyperplasia + systemic / pathology microscopic / stomach / edema + systemic / pathology ….
Where [33] appears, read: group: developmental, developmental / developmental malformation / bone / fused + developmental / developmental malformation / bone / incomplete ossification.
The mark [34] stands for this setting: systemic / in life observation / body weight / body weight + systemic / in life observation / food consumption / food efficiency + systemic….

Bounds are passed on as bounds.

Turning to `OCC(CO)n1cnc(-c2ccc(F)cc2)c1-c1ccnc(Oc2ccccc2)n1`, the figures for the LOAEL in the data set with rat [1] (setting [17]), with mouse [2] and in the data set on primate (setting [18]) were greater than 2000 mg/kg/day, greater than 300 mg/kg/day and greater than 2000 mg/kg/day, respectively. Besides, the values for the NEL in the data set on rat [1] (setting [17]), with mouse [2] and with primate (setting [18]) were 3 mg/kg/day, less than 30 mg/kg/day and 10 mg/kg/day, respectively. Moreover, the NOAEL was no less than 2000 mg/kg/day with rat [1] (setting [17]), no less than 300 mg/kg/day in the data set with mouse [2] and no less than 2000 mg/kg/day in the data set on primate (setting [18]). Further, the LEL with rat [1] (systemic / in life observation / body weight / body weight gain) was 30 mg/kg/day; in the data set on mouse [2] it was 30 mg/kg/day; in the data set on primate (systemic / clinical chemistry / calcium / calcium + systemic / in life observation / clinical signs / feces, discoloration + systemic / …), 300 mg/kg/day.
As to `c1ccc2n[nH]nc2c1` [1,2,3-Benzotriazole], in the data set with mouse [3] (setting [19]), the LOAEL came out at 1760 mg/kg/day and the NOAEL is less than 1760 mg/kg/day. Moreover, in the data set on mouse [3] (setting [20]), the LEL was determined as 1760 mg/kg/day and the NEL is less than 1760 mg/kg/day. For the same molecule, in the data set with rat [4], the LEL is 335 mg/kg/day, the lowest-observed-adverse-effect level (LOAEL) worked out at 335 mg/kg/day, the NEL was less than 335 mg/kg/day and the no observed adverse effect level (NOAEL) was less than 335 mg/kg/day.
Turning to `CCCCCCCCn1sc(Cl)c(Cl)c1=O` [4,5-Dichloro-2-octyl-3(2H)-isothiazolone], the LEL stood at 60.7 mg/kg/day in the data set with rat [5]; 20 mg/kg/day in the data set on rat [6] (setting [22]); 40 mg/kg/day with rat [6] (group: parental, systemic / in life observation / body weight / body weight + systemic / in life observation / body weight / body weight gain + systemic / in…); 45.9 mg/kg/day in the data set with dog [7]; 100 mg/kg/day in the data set with rat [8] (setting [24]); 10 mg/kg/day with rat [8] (setting [25]). Further, the lowest observed adverse effect level (LOAEL) with rat [5] is 60.7 mg/kg/day; in the data set with rat [6] (setting [22]) it was 20 mg/kg/day; with rat [6] (group: parental, systemic / in life observation / body weight / body weight + systemic / in life observation / body weight / body weight gain) it was 40 mg/kg/day; with dog [7] it was 45.9 mg/kg/day; with rat [8] (setting [24]), 100 mg/kg/day; in the data set with rat [8] (group: maternal, systemic / in life observation / clinical signs / defecation + systemic / in life observation / food consumption / food consumption), 30 mg/kg/day. Moreover, the NEL with rat [5] is 32.5 mg/kg/day; in the data set with rat [6] (setting [21]), 10 mg/kg/day; with rat [6] (setting [23]), 20 mg/kg/day; in the data set on dog [7] it was 10.1 mg/kg/day; in the data set with rat [8] (setting [24]), 30 mg/kg/day; with rat [8] (setting [25]), less than 10 mg/kg/day. The NOAEL with rat [5] is 32.5 mg/kg/day; in the data set on rat [6] (setting [21]) it was 10 mg/kg/day; in the data set with rat [6] (setting [23]) it was 20 mg/kg/day; in the data set with dog [7] it was 10.1 mg/kg/day; with rat [8] (setting [24]), 30 mg/kg/day; in the data set on rat [8] (group: maternal, systemic / in life observation / clinical signs / defecation + systemic / in life observation / food consumption / food consumption + …) it was 10 mg/kg/day.
Turning to `CCC(CN1CCOCC1)[N+](=O)[O-]` (centres undefined) [4-(2-Nitrobutyl)morpholine], in the data set with rat [9], the LEL came out at 10 mg/kg/day, the LOAEL is greater than 50 mg/kg/day, the NEL was 5 mg/kg/day and the no observed adverse effect level (NOAEL) is no less than 50 mg/kg/day. Besides, in the data set with dog [10], the LEL came to 25 mg/kg/day, the lowest observed adverse effect level (LOAEL) worked out at 25 mg/kg/day, the NEL stood at 10 mg/kg/day and the NOAEL worked out at 10 mg/kg/day.
On to `O=S1CCON=C1c1cc2ccccc2s1` (centres undefined) [Bethoxazin], for which the lowest observed adverse effect level (LOAEL) with rabbit (setting [26]) is 30 mg/kg/day; in the data set on rabbit (setting [27]), 30 mg/kg/day; in the data set with rat [11] (setting [29]) it was 70 mg/kg/day; with rat [11] (setting [30]) it was greater than 70 mg/kg/day; with rat [12], 0.1 mg/kg/day; in the data set with rat [13] it was 50 mg/kg/day. For the same molecule, the lowest observed adverse effect level (LOAEL) in the data set with rat [14] (setting [32]) turned out to be 5 mg/kg/day. For the same molecule, the NEL was 3 mg/kg/day in the data set on rabbit (setting [26]); less than 10 mg/kg/day in the data set with rat [11] (setting [29]); 30 mg/kg/day with rat [11] (setting [30]); less than 0.1 mg/kg/day with rat [12]; less than 50 mg/kg/day in the data set with rat [13]; 1.25 mg/kg/day in the data set on rat [14] (setting [31]). For the same molecule, the LEL with rabbit (group: developmental, developmental / developmental malformation / bone / supernumerary) was 10 mg/kg/day; in the data set with rabbit (setting [28]), 30 mg/kg/day; in the data set with rat [11] (setting [29]), 10 mg/kg/day; with rat [11] (setting [30]), 70 mg/kg/day; in the data set on rat [12], 0.1 mg/kg/day; in the data set with rat [13] it was 50 mg/kg/day. Moreover, the LEL in the data set on rat [14] (setting [32]) stood at 5 mg/kg/day. In addition, the NOAEL in the data set on rat [11] (setting [29]) was 30 mg/kg/day; in the data set on rat [11] (setting [30]) it was no less than 70 mg/kg/day; in the data set with rat [12], less than 0.1 mg/kg/day; with rat [13], less than 50 mg/kg/day; in the data set on rat [14] (setting [31]), 1.25 mg/kg/day.
For the molecule `CC(C)Nc1nc(N)nc(Cl)n1` [Deethylatrazine], the LEL with rat [15] (setting [33]) was found to be 100 mg/kg/day; in the data set on rat [15] (setting [27]), 25 mg/kg/day; in the data set on rat [16] (setting [34]), 35.1 mg/kg/day. The values for the lowest-observed-adverse-effect level (LOAEL) with rat [15] (setting [33]), in the data set on rat [15] (setting [27]) and in the data set on rat [16] (systemic / in life observation / body weight / body weight + systemic / in life observation / food consumption / food efficiency) were 100 mg/kg/day, 25 mg/kg/day and 35.1 mg/kg/day, respectively. For the same molecule, the figures for the NEL in the data set on rat [15] (setting [33]), in the data set with rat [15] (setting [28]) and in the data set on rat [16] (setting [34]) were 25 mg/kg/day, 5 mg/kg/day and 3.2 mg/kg/day, respectively. For the same molecule, the NOAEL amounted to 25 mg/kg/day in the data set on rat [15] (setting [33]), 5 mg/kg/day in the data set on rat [15] (setting [28]) and 3.2 mg/kg/day in the data set with rat [16] (setting [34]).
